# Test results taken from patent US8466088B2, “Herbicidal compositions containing benzoylpyrazole compounds” (Ishihara Sangyo Kaisha, Ltd., priority 2007, dated 2013).
# Read-outs that look alike come from different tables or passages of the source.
# Key:
# crabgrass = experiment: Example 1: pot test, foliar treatment, visually observed growth inhibition of crabgrass; type: in vivo
# From the text: (§1) When the herbicidal activity in a case where two active ingredients are combined, is larger than the simple sum of the respective herbicidal activities of the two active ingredients (the expected activity), it is called a synergistic effect. The activity expected by the combination of two active ingredients can be calculated as follows (Colby S. R., “Weed”, vol. 15, p. 20-22, 1967). E=α+β−(α×β+100) where
# (§2) α: growth inhibition rate when treated with x (g/ha) of herbicide X,
# (§3) β: growth inhibition rate when treated with y (g/ha) of herbicide Y,
# (§4) E: growth inhibition rate expected when treated with x (g/ha) of herbicide X and y (g/ha) of herbicide Y.
# (§5) That is, when the actual growth inhibition rate (measured value) is larger than the growth inhibition rate by the above calculation (calculated value), the activity by the combination can be regarded as showing a synergistic effect.
# (§6) Upland field soil was put into a 1/1,000,000 hectare pot, and seeds of various plants were sown. When the respective plants reached predetermined leaf stage, herbicidal compositions in predetermined amounts were diluted with water in an amount corresponding to 300 L/ha and applied for foliar treatment by a small sprayer.
# (§7) Further, in accordance with the above Colby's formula, the growth inhibition rate (calculated value) was calculated. In Tables, with respect to the compound A, Compound Nos. in Table 1 or 3 are described, and with respect to other herbicidal compounds, common names are described.
# velvetleaf = experiment: Example 1: pot test, foliar treatment, visually observed growth inhibition of velvetleaf; type: in vivo, Abutilon theophrasti MEDIC.
# From the text: as §1, §2, §3, §4, §5, §6, §7
# [1] = Digitaria sanguinalis, foliar, read-out: Growth inhibition rate (%) of crabgrass, Measured value
smiles,measurement,setting,value
CCCCCCCC(=O)Oc1c(Br)cc(C#N)cc1Br [Bromoxynil-octanoate],inhibition at 63 g/ha,"crabgrass; Digitaria sanguinalis, foliar, 3.5 to 4.0 leaf stage, 21st day after application, 63 g/ha, read-out: Growth inhibition rate (%) of crabgrass, Measured value",0%
same,inhibition at 63 g/ha,"velvetleaf; Abutilon theophrasti, foliar, 2.0 to 2.5 leaf stage, 21st day after application, 63 g/ha, read-out: Growth inhibition rate (%) of velvetleaf, Measured value",25%
same,inhibition at 50 g/ha,"velvetleaf; Abutilon theophrasti, foliar, 3.0 to 3.8 leaf stage, 15th day after application, read-out: Growth inhibition rate (%) of velvetleaf, Measured value",0%
same,inhibition at 50 g/ha,"velvetleaf; Abutilon theophrasti, foliar, 3.2 to 5.0 leaf stage, 14th day after application, read-out: Growth inhibition rate (%) of velvetleaf, Measured value",20%
same,inhibition at 50 g/ha,"velvetleaf; Abutilon theophrasti, foliar, 3.2 to 5.0 leaf stage, 21st day after application, read-out: Growth inhibition rate (%) of velvetleaf, Measured value",10%
same,inhibition at 63 g/ha,"velvetleaf; Abutilon theophrasti, foliar, 3.3 to 4.2 leaf stage, 22nd day after application, 63 g/ha, read-out: Growth inhibition rate (%) of velvetleaf, Measured value",45%
same,inhibition at 125 g/ha,"velvetleaf; Abutilon theophrasti, foliar, 3.3 to 4.2 leaf stage, 22nd day after application, read-out: Growth inhibition rate (%) of velvetleaf, Measured value",50%
same,inhibition at 50 g/ha,"velvetleaf; Abutilon theophrasti, foliar, 3.5 to 4.3 leaf stage, 21st day after application, read-out: Growth inhibition rate (%) of velvetleaf, Measured value",0%
CCn1ncc(C(=O)c2ccc(S(C)(=O)=O)c(OCCOC)c2C)c1OC(=O)SC(C)C [No. 208],"Growth inhibition rate (%) of crabgrass, Measured value","crabgrass; 2.7 to 3.6 leaf stage, 21st day after application, 7.75 g/ha",83%
same,"Growth inhibition rate (%) of crabgrass, Measured value","crabgrass; 2.7 to 3.6 leaf stage, 21st day after application, 15.5 g/ha",83%
same,"Growth inhibition rate (%) of velvetleaf, Measured value","velvetleaf; 3.2 to 4.1 leaf stage, 21st day after application, 7.75 g/ha",73%
same,"Growth inhibition rate (%) of velvetleaf, Measured value","velvetleaf; 3.2 to 4.1 leaf stage, 21st day after application, 15.5 g/ha",73%
CCOc1c(S(C)(=O)=O)ccc(C(=O)c2cnn(C)c2O)c1C [No. 2-19],"Growth inhibition rate (%) of crabgrass, Measured value","crabgrass; 3.8 to 5.2 leaf stage, 21st day after application, 7 g/ha",30%
same,"Growth inhibition rate (%) of velvetleaf, Measured value","velvetleaf; 3.2 to 5.0 leaf stage, 14th day after application, 7 g/ha",60%
same,"Growth inhibition rate (%) of velvetleaf, Measured value","velvetleaf; 3.2 to 5.0 leaf stage, 21st day after application, 7 g/ha",50%
CCn1ncc(C(=O)c2ccc(S(C)(=O)=O)c(OCCOC)c2C)c1O [No. 2-161],"Growth inhibition rate (%) of crabgrass, Measured value","crabgrass; 3.3 to 4.2 leaf stage, 28th day after application, 3.5 g/ha",70%
same,"Growth inhibition rate (%) of crabgrass, Measured value","crabgrass; 3.3 to 4.2 leaf stage, 28th day after application, 7 g/ha",83%
same,"Growth inhibition rate (%) of velvetleaf, Measured value","velvetleaf; 3.0 to 3.8 leaf stage, 15th day after application, 3.5 g/ha",60%
same,"Growth inhibition rate (%) of velvetleaf, Measured value","velvetleaf; 3.0 to 3.8 leaf stage, 15th day after application, 7 g/ha",60%
same,"Growth inhibition rate (%) of velvetleaf, Measured value","velvetleaf; 3.0 to 3.8 leaf stage, 28th day after application, 3.5 g/ha",45%
same,"Growth inhibition rate (%) of velvetleaf, Measured value","velvetleaf; 3.0 to 3.8 leaf stage, 28th day after application, 7 g/ha",65%
"CCSC(=O)Oc1c(C(=O)c2ccc(S(C)(=O)=O)c(C(=O)OC)c2C)cnn1C [No. 1, 5-(ethylthio)carbonyloxy-1-methylpyrazol-4-yl 3-(methoxycarbonyl)-2-methyl-4-(methylsulfonyl)phenyl ketone]",inhibition at 15 g/ha,"crabgrass; Digitaria sanguinalis, foliar, 3.2 to 4.3 leaf stage, on the 22nd day after application, foliar, active ingredient amount 15 g/ha, read-out: Growth inhibition rate (%) of crabgrass, Measured value",65%
Cn1nc(C(F)(F)F)c(CS(=O)(=O)C2=NOC(C)(C)C2)c1OC(F)F [Pyroxasulfone],inhibition at 50 g/ha,"velvetleaf; Abutilon theophrasti, foliar, 3.5 to 4.0 leaf stage, 14th day after application, read-out: Growth inhibition rate (%) of velvetleaf, Measured value",40%
same,inhibition at 100 g/ha,"velvetleaf; Abutilon theophrasti, foliar, 3.5 to 4.0 leaf stage, 14th day after application, 100 g/ha, read-out: Growth inhibition rate (%) of velvetleaf, Measured value",50%
CS(=O)(=O)c1ccc(C(=O)C2C(=O)CCCC2=O)c(Cl)c1 [Sulcotrione],inhibition at 15 g/ha,crabgrass; [1],10%
same,inhibition at 15.6 g/ha,crabgrass; [1],50%
same,inhibition at 31 g/ha,crabgrass; [1],65%
same,inhibition at 15 g/ha,"velvetleaf; Abutilon theophrasti, foliar, read-out: Growth inhibition rate (%) of velvetleaf, Measured value, 3.2 to 4.3 leaf stage, 21st day after application, 15 g/ha",25%
COCC(C)N(C(=O)CCl)c1c(C)csc1C (centres unmarked) [Dimethenamid],inhibition at 125 g/ha,"velvetleaf; Abutilon theophrasti, foliar, 2.0 to 2.5 leaf stage, 21st day after application, read-out: Growth inhibition rate (%) of velvetleaf, Measured value",0%
COCCOc1c(S(C)(=O)=O)ccc(C(=O)c2cnn(C)c2O)c1C [No. 2-28],"Growth inhibition rate (%) of crabgrass, Measured value","crabgrass; 3.5 to 5.0 leaf stage, 22nd day after application, 7 g/ha",88%
same,"Growth inhibition rate (%) of crabgrass, Measured value","crabgrass; 3.5 to 5.0 leaf stage, 22nd day after application, 15 g/ha",93%
same,"Growth inhibition rate (%) of crabgrass, Measured value","crabgrass; 3.6 to 4.5 leaf stage, 14th day after application, 7 g/ha",90%
same,"Growth inhibition rate (%) of crabgrass, Measured value","crabgrass; 3.6 to 4.5 leaf stage, 14th day after application, 15 g/ha",97%
same,"Growth inhibition rate (%) of crabgrass, Measured value","crabgrass; 3.6 to 4.5 leaf stage, 22nd day after application, 7 g/ha",93%
same,"Growth inhibition rate (%) of crabgrass, Measured value","crabgrass; 4.1 to 5.3 leaf stage, 14th day after application, 15 g/ha",85%
same,"Growth inhibition rate (%) of crabgrass, Measured value","crabgrass; 4.1 to 5.3 leaf stage, 20th day after application, 7 g/ha",85%
same,"Growth inhibition rate (%) of crabgrass, Measured value","crabgrass; 4.1 to 5.3 leaf stage, 20th day after application, 15 g/ha",97%
same,"Growth inhibition rate (%) of crabgrass, Measured value","crabgrass; 4.3 to 4.5 leaf stage, 20th day after application, 15 g/ha",80%
same,"Growth inhibition rate (%) of velvetleaf, Measured value","velvetleaf; 3.3 to 4.2 leaf stage, 14th day after application, 7 g/ha",93%
same,"Growth inhibition rate (%) of velvetleaf, Measured value","velvetleaf; 3.3 to 4.2 leaf stage, 14th day after application, 15 g/ha",97%
same,"Growth inhibition rate (%) of velvetleaf, Measured value","velvetleaf; 3.3 to 4.2 leaf stage, 22nd day after application, 7 g/ha",93%
same,"Growth inhibition rate (%) of velvetleaf, Measured value","velvetleaf; 3.3 to 4.2 leaf stage, 22nd day after application, 15 g/ha",97%
same,"Growth inhibition rate (%) of velvetleaf, Measured value","velvetleaf; 3.5 to 4.0 leaf stage, 14th day after application, 7 g/ha",83%
same,"Growth inhibition rate (%) of velvetleaf, Measured value","velvetleaf; 3.5 to 4.0 leaf stage, 14th day after application, 15 g/ha",95%
same,"Growth inhibition rate (%) of velvetleaf, Measured value","velvetleaf; 3.5 to 4.0 leaf stage, 22nd day after application, 7 g/ha",90%
same,"Growth inhibition rate (%) of velvetleaf, Measured value","velvetleaf; 3.5 to 4.1 leaf stage, 14th day after application, 7 g/ha",75%
same,"Growth inhibition rate (%) of velvetleaf, Measured value","velvetleaf; 3.5 to 4.1 leaf stage, 14th day after application, 15 g/ha",85%
same,"Growth inhibition rate (%) of velvetleaf, Measured value","velvetleaf; 3.5 to 4.1 leaf stage, 20th day after application, 7 g/ha",75%
same,"Growth inhibition rate (%) of velvetleaf, Measured value","velvetleaf; 3.5 to 4.1 leaf stage, 20th day after application, 15 g/ha",88%
CP(=O)(O)CCC(N)C(=O)O (centres unmarked) [Glufosinate-ammonium],inhibition at 100 g/ha,"velvetleaf; Abutilon theophrasti, foliar, read-out: Growth inhibition rate (%) of velvetleaf, Measured value, 3.3 to 4.3 leaf stage, 20th day after application, 100 g/ha",0%
same,inhibition at 200 g/ha,"velvetleaf; Abutilon theophrasti, foliar, read-out: Growth inhibition rate (%) of velvetleaf, Measured value, 3.3 to 4.3 leaf stage, 20th day after application, 200 g/ha",10%
CSc1nnc(C(C)(C)C)c(=O)n1N [Metribuzin],inhibition at 125 g/ha,"crabgrass; Digitaria sanguinalis, foliar, 3.2 to 4.2 leaf stage, 21st day after application, 125 g/ha, read-out: Growth inhibition rate (%) of crabgrass, Measured value",15%
same,inhibition at 250 g/ha,"crabgrass; Digitaria sanguinalis, foliar, 3.2 to 4.2 leaf stage, 21st day after application, 250 g/ha, read-out: Growth inhibition rate (%) of crabgrass, Measured value",20%
COc1cc(OC)nc(NC(=O)NS(=O)(=O)c2cc(NC=O)ccc2C(=O)N(C)C)n1 [Foramsulfuron],inhibition at 15 g/ha,"velvetleaf; Abutilon theophrasti, foliar, 2.0 to 2.8 leaf stage, 21st day after application, 15 g/ha, read-out: Growth inhibition rate (%) of velvetleaf, Measured value",0%
same,inhibition at 30 g/ha,"velvetleaf; Abutilon theophrasti, foliar, 2.0 to 2.8 leaf stage, 21st day after application, 30 g/ha, read-out: Growth inhibition rate (%) of velvetleaf, Measured value",25%
CCS(=O)(=O)c1cccnc1S(=O)(=O)NC(=O)Nc1nc(OC)cc(OC)n1 [Rimsulfuron],inhibition at 10 g/ha,"velvetleaf; Abutilon theophrasti, foliar, 3.0 to 4.0 leaf stage, 21st day after application, 10 g/ha, read-out: Growth inhibition rate (%) of velvetleaf, Measured value",75%
same,inhibition at 20 g/ha,"velvetleaf; Abutilon theophrasti, foliar, 3.0 to 4.0 leaf stage, 21st day after application, 20 g/ha, read-out: Growth inhibition rate (%) of velvetleaf, Measured value",95%
same,inhibition at 7 g/ha,"velvetleaf; Abutilon theophrasti, foliar, 3.2 to 4.3 leaf stage, 21st day after application, 7 g/ha, read-out: Growth inhibition rate (%) of velvetleaf, Measured value",50%
N.O=C(O)CNCP(=O)(O)O [Glyphosate-ammonium],"Growth inhibition rate (%) of velvetleaf, Measured value","velvetleaf; 2.6 to 3.3 leaf stage, 20th day after application, 63 g/ha",0%
same,"Growth inhibition rate (%) of velvetleaf, Measured value","velvetleaf; 3.0 to 4.0 leaf stage, 21st day after application, 200 g/ha",0%
same,"Growth inhibition rate (%) of velvetleaf, Measured value","velvetleaf; 3.2 to 5.0 leaf stage, 14th day after application, 75 g/ha",0%
same,"Growth inhibition rate (%) of velvetleaf, Measured value","velvetleaf; 3.5 to 4.1 leaf stage, 14th day after application, 100 g/ha",25%
same,"Growth inhibition rate (%) of velvetleaf, Measured value","velvetleaf; 3.5 to 4.1 leaf stage, 14th day after application, 200 g/ha",50%
same,"Growth inhibition rate (%) of velvetleaf, Measured value","velvetleaf; 3.5 to 4.1 leaf stage, 20th day after application, 75 g/ha",0%
same,"Growth inhibition rate (%) of velvetleaf, Measured value","velvetleaf; 3.5 to 4.1 leaf stage, 20th day after application, 150 g/ha",0%
same,"Growth inhibition rate (%) of velvetleaf, Measured value","velvetleaf; 3.5 to 4.3 leaf stage, 21st day after application, 75 g/ha",0%
COc1nc(NC(=O)NS(=O)(=O)c2ccccc2C(F)(F)F)nc(C(F)(F)F)n1 [Tritosulfuron],"Growth inhibition rate (%) of crabgrass, Measured value","crabgrass; 3.2 to 4.2 leaf stage, 21st day after application, 15 g/ha",0%
O=C(O)CNCP(=O)([O-])O.[K+] [Glyphosate-potassium],"Growth inhibition rate (%) of crabgrass, Measured value","crabgrass; 3.3 to 4.2 leaf stage, 28th day after application, 75 g/ha",0%
